Reference: patent US12053470B2, “Pharmaceutical combination comprising an ALK inhibitor and a SHP2 inhibitor” (Novartis AG, priority 2017, dated 2024)

Experiments:
[1] = tested on: Ceritinib resistant MGH049 cells; test: Cell colony formation assay with ceritinib resistant MGH049 cells;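 for all read-outs here: tested compounds are SHP2 inhibitors given alone, colonies fixed and crystal violet stained, DMSO reference taken as the mean of six readings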; type: cell-based, human; conditions: 7 days; for activity at 3 µM: Homo sapiens, 168 h, compound of Table 1 (3 μM) alone, normalized to DMSO without compound = 100, read-out: Normalized Crystal Violet abs. (590 nm) DMSO
SHP2 = SHP2 (Homo sapiens (Human), UniProt Q06124); test: SHP2 allosteric inhibition assay (DiFMUP prompt fluorescence); type: biochemical
SHP2, sequence (Q06124 whole entry): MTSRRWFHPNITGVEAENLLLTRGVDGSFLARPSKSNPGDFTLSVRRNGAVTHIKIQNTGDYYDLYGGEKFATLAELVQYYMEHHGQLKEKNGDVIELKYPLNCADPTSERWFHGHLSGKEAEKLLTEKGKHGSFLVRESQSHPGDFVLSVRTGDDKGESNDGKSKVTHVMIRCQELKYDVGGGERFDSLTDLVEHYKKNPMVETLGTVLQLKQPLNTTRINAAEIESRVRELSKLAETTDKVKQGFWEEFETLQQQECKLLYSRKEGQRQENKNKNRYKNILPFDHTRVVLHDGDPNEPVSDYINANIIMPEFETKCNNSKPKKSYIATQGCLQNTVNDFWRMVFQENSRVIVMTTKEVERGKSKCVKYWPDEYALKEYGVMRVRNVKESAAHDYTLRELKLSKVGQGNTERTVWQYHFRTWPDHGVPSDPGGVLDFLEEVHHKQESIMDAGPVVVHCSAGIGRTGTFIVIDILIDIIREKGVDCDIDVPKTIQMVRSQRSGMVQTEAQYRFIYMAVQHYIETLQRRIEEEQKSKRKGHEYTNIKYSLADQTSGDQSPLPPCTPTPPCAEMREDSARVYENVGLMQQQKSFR

[2] = tested on: MGH049, MGH045-2A and MGH073-2B cells; test: Cell colony formation assay (crystal violet, FIG. 1); type: cell-based, human; conditions: Compound No. 1 5 μM, 14 days
Description: FIG. 1. […]. For each cell line, all dishes were fixed, stained and photographed at the same time.
The MGH049, MGH045-2A and MGH073-2B cell lines were established at Massachusetts General Hospital. MGH049 is described in Friboulet L, et al. Cancer Discov. 2014 June; 4(6):662-73. MGH045 is described in Friboulet L, et al. Cancer Discov. 2014 June; 4(6):662-73). MGH045-1A, is described in Science, 2014, December 19; 346(6216):1480-1).
All human lung cancer samples were obtained from patients with informed consent, and all procedures were carried out under an Institutional Review Board (IRB)-approved protocol. The cell lines were cultured in DMEM (ATCC) supplemented with 10% FBS, or in RPMI (ATCC) supplemented with 15% FBS.
Cell colony formation assays were used to assess cell viability and proliferation after compound treatments. Cells were plated into 6-well tissue culture plates (6×10^5 cells/well) in a total volume of 2 mL. After 24 hours, compounds were added to the plates. At the end points of the assays, cells were fixed, stained with crystal violet and photographed.
[…]. […] […].

Structure (SMILES) | activity at 3 µM [1] [%] | IC50 (SHP2) [nM] | effect on cell growth as a single agent ([1]; 3 μM, ceritinib-resistant cells) | effect on cell growth as a single agent [2]
C[C@H]1C[C@@H](N)C2(CCN(c3cnc(Sc4ccnc(N)c4Cl)cn3)CC2)C1 [compound 19, (1R,3R)-8-(5-((2-amino-3-chloropyridin-4-yl)thio)pyrazin-2-yl)-3-methyl-8-azaspiro[4.5]decan-1-amine] | 96.1 | 6 |  | 
Nc1nc(N2CCC3(CC2)COC[C@H]3N)cnc1Sc1cccnc1C(F)(F)F [compound 10, (S)-8-(6-amino-5-((2-(trifluoromethyl)pyridin-3-yl)thio)pyrazin-2-yl)-2-oxa-8-azaspiro[4.5]decan-4-amine] |  | 25 |  | 
C[C@@H]1OCC2(CCN(c3cnc(Sc4ccnc(N)c4Cl)cn3)CC2)[C@@H]1N [compound 22, (3S,4S)-8-(5-((2-amino-3-chloropyridin-4-yl)thio)pyrazin-2-yl)-3-methyl-2-oxa-8-azaspiro[4.5]decan-4-amine] | 19.5 | 8 |  | 
Nc1nccc(Sc2cnc(N3CCC4(CC3)COC[C@H]4N)cn2)c1Cl [compound 24, (S)-8-(5-((2-amino-3-chloropyridin-4-yl)thio)pyrazin-2-yl)-2-oxa-8-azaspiro[4.5]decan-4-amine] | 43.5 | 6 |  | 
Cn1c(N2CCC3(CCC[C@H]3N)CC2)nc2n[nH]c(-c3cccc(Cl)c3Cl)c2c1=O [compound 37, (R)-6-(1-amino-8-azaspiro[4.5]decan-8-yl)-3-(2,3-dichlorophenyl)-5-methyl-2,5-dihydro-4H-pyrazolo[3,4-d]pyrimidin-4-one] | 45 | 26 |  | 
Nc1nc(N2CCC(N)(CF)CC2)cnc1Sc1cccc(NC(=O)c2c(O)nc3ccccn3c2=O)c1Cl [compound 52, N-(3-((3-amino-5-(4-amino-4-(fluoromethyl)piperidin-1-yl)pyrazin-2-yl)thio)-2-chlorophenyl)-2-hydroxy-4-oxo-4H-pyrido[1,2-a]pyrimidine-3-carboxamide] | 67.9 | 5 |  | 
CC1(N)CCN(c2cnc(-c3cccc(Cl)c3Cl)c(N)n2)CC1 [Compound No. 1, 6-(4-amino-4-methylpiperidin-1-yl)-3-(2,3-dichlorophenyl)pyrazin-2-amine] | 117 |  | no effect on cell growth | no effect on cell growth
Nc1nc(N2CCC3(CCC[C@H]3N)CC2)cnc1-c1cccc(Cl)c1Cl [compound 9, (R)-8-(6-amino-5-(2,3-dichlorophenyl)pyrazin-2-yl)-8-azaspiro[4.5]decan-1-amine] | 118 | 73 |  | 
Nc1nccc(Sc2cnc(N3CCC4(CC3)C[C@@H](O)C[C@H]4N)cn2)c1Cl [compound 18, (2R,4R)-4-amino-8-(5-((2-amino-3-chloropyridin-4-yl)thio)pyrazin-2-yl)-8-azaspiro[4.5]decan-2-ol] | 32.3 | 4.5 |  | 
CC[C@@H]1OCC2(CCN(c3cnc(Sc4ccnc(N)c4Cl)c(N)n3)CC2)[C@@H]1N [compound 17, (3S,4S)-8-(6-amino-5-((2-amino-3-chloropyridin-4-yl)thio)pyrazin-2-yl)-3-ethyl-2-oxa-8-azaspiro[4.5]decan-4-amine] | 29.4 | 9 |  | 
CC1(N)CCN(c2cnc(Sc3cccc(NC(=O)C4=C(O)CN(c5ccccc5)C4=O)c3Cl)c(N)n2)CC1 [compound 46, N-(3-((3-amino-5-(4-amino-4-methylpiperidin-1-yl)pyrazin-2-yl)thio)-2-chlorophenyl)-4-hydroxy-2-oxo-1-phenyl-2,5-dihydro-1H-pyrrole-3-carboxamide] | 70.9 | 4 |  | 
C[C@@H]1OCC2(CCN(c3cnc(-c4cccc(Cl)c4Cl)c(N)n3)CC2)[C@@H]1N [compound 7, (3S,4S)-8-(6-amino-5-(2,3-dichlorophenyl)pyrazin-2-yl)-3-methyl-2-oxa-8-azaspiro[4.5]decan-4-amine] | 98.2 | 39 |  | 
CC1CCC2(CCN(c3cnc(Sc4ccnc(N)c4Cl)c(N)n3)CC2)[C@@H]1N (stereo partly drawn) [compound 15, (1R)-8-(6-amino-5-((2-amino-3-chloropyridin-4-yl)thio)pyrazin-2-yl)-2-methyl-8-azaspiro[4.5]decan-1-amine] | 31 | 9 |  | 
C[C@@H]1OCC2(CCN(c3cnc(Sc4cc(N)nc(Cl)c4Cl)cn3)CC2)[C@@H]1N [compound 21, (3S,4S)-8-(5-((6-amino-2,3-dichloropyridin-4-yl)thio)pyrazin-2-yl)-3-methyl-2-oxa-8-azaspiro[4.5]decan-4-amine] | 48.2 | 14 |  | 
Nc1nc(N2CCC(N)(CF)CC2)cnc1Sc1cccc(NC(=O)c2c(O)nc3n(c2=O)CCCC3)c1Cl [compound 51, N-(3-((3-amino-5-(4-amino-4-(fluoromethyl)piperidin-1-yl)pyrazin-2-yl)thio)-2-chlorophenyl)-2-hydroxy-4-oxo-6,7,8,9-tetrahydro-4H-pyrido[1,2-a]pyrimidine-3-carboxamide] | 94 | 6 |  | 
Nc1nc(N2CCC3(CCCN3)CC2)cnc1-c1cccc(Cl)c1Cl [compound 8, 3-(2,3-dichlorophenyl)-6-(1,8-diazaspiro[4.5]decan-8-yl)pyrazin-2-amine] | 99.9 | 155 |  | 
C[C@@H]1OCC2(CCN(c3nc(N)c(Sc4cccc(N)c4C(F)(F)F)c(=O)n3C)CC2)[C@@H]1N [compound 32, 6-amino-5-((3-amino-2-(trifluoromethyl)phenyl)thio)-2-((3S,4S)-4-amino-3-methyl-2-oxa-8-azaspiro[4.5]decan-8-yl)-3-methylpyrimidin-4(3H)-one] | 58.2 |  |  | 
Cc1nc(N)ccc1-c1[nH]nc2nc(N3CCC4(CC3)C[C@@H](C)C[C@H]4N)n(C)c(=O)c12 [compound 40, 3-(6-amino-2-methylpyridin-3-yl)-6-((1R,3R)-1-amino-3-methyl-8-azaspiro[4.5]decan-8-yl)-5-methyl-2,5-dihydro-4H-pyrazolo[3,4-d]pyrimidin-4-one] | 22.4 |  |  | 
CC1CCC2(CCN(c3cnc(Sc4ccnc(N)c4Cl)cn3)CC2)[C@@H]1N (stereo partly drawn) [compound 20, (1R)-8-(5-((2-amino-3-chloropyridin-4-yl)thio)pyrazin-2-yl)-2-methyl-8-azaspiro[4.5]decan-1-amine] | 54.7 | 6 |  | 
